The values below come from ChEMBL document CHEMBL1201862, “PubChem BioAssay data set” (2004).

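Protocol summary: plate cells (96-well), add compound at 5 concentrations, incubate 48 h, interpolate endpoints linearly. Here, GI50 denotes the concentration required for 50% inhibition of growth.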 Active and inactive are the calls of the source. Rule as the data show it: active = GI50 up to about 1.1 µM and inactive = higher.

Among the test systems are BT-549; OVCAR-8; RPMI-8226; HT-29; M14; MCF7; DU-145; NCI-H23; HOP-92; Hs-578T; SK-MEL-28; U-251; ACHN; SNB-75; NCI-H522; MDA-MB-231; IGROV-1; 786-0; UACC-257.
What all share (test): DTP human tumour cell line panel, 48 h

In general, GI50 refers to the concentration that inhibits growth by half.

On to `COc1cc(/C=C/C(=O)OC[C@]23O[C@H]2[C@@H](OC2OC(C)C(O)C(O)C2O)C2C=CO[C@@H](OC4OC(CO)C(O)C(O)C4O)C23)ccc1O` (stereo partly specified), for which the GI50 with BT-549, in the test with OVCAR-8, in the test on RPMI-8226, in the test on HT-29, in the test with M14 and with MCF7 was > 100 µM (inactive) throughout. The GI50 with DU-145, in the test on NCI-H23, in the test with HOP-92, in the test with Hs-578T, in the test with SK-MEL-28 and with U-251 was > 100 µM (inactive) in each case. In addition, the GI50 with ACHN, with SNB-75, with NCI-H522, in the test with MDA-MB-231, in the test with IGROV-1 and in the test on 786-0 was > 100 µM (inactive) in each case.

For `CC1=C(C(=O)NCCCN(CCO)CCO)CC(C(=O)NCCCN(CCO)CCO)=C(C)N1`, the GI50 is > 100 µM (inactive) with BT-549; > 100 µM (inactive) in the test with OVCAR-8; > 100 µM (inactive) in the test on UACC-257; 76 µM (inactive) in the test on RPMI-8226; > 100 µM (inactive) in the test on HT-29; > 100 µM (inactive) in the test on M14. Besides, the GI50 in the test on MCF7 was > 100 µM (inactive); in the test on DU-145, > 100 µM (inactive); in the test with NCI-H23, > 100 µM (inactive); with HOP-92 it was 54.6 µM (inactive); in the test on Hs-578T, 29.1 µM (inactive); in the test on U-251, > 100 µM (inactive). The GI50 in the test with ACHN was 97.1 µM (inactive); with SNB-75, 15.2 µM (inactive); in the test on NCI-H522, 98.9 µM (inactive); in the test with MDA-MB-231, 40.7 µM (inactive); with IGROV-1, > 100 µM (inactive); in the test with 786-0, > 100 µM (inactive).

Regarding `COc1ccccc1-c1cc(O)c2cccnc2n1`, the GI50 in the test with BT-549 was 22.2 µM (inactive); in the test with OVCAR-8, 37.7 µM (inactive); in the test with UACC-257 it was 37.8 µM (inactive); with RPMI-8226, 44.1 µM (inactive); with HT-29 it was 23.4 µM (inactive); in the test with M14, 38.4 µM (inactive). Further, the GI50 in the test with MCF7 was 6.59 µM (inactive); in the test with DU-145, > 100 µM (inactive); in the test on NCI-H23, 35.2 µM (inactive); with HOP-92, 7.89 µM (inactive); with Hs-578T, 61 µM (inactive); with SK-MEL-28 it was 82 µM (inactive). Besides, the GI50 was 40.3 µM (inactive) with U-251; 64.1 µM (inactive) with ACHN; 46.9 µM (inactive) with NCI-H522; 52.6 µM (inactive) in the test with MDA-MB-231; 22.5 µM (inactive) with IGROV-1; 76 µM (inactive) with 786-0.

In the case of `COc1cc2cc(C(=O)N3C[C@H](CCl)c4c3cc(O)c3ccccc43)[nH]c2c(OC)c1OC`, the GI50 with BT-549 was 0.236 µM (active); in the test on OVCAR-8, 0.0942 µM (active); with RPMI-8226, 0.121 µM (active); in the test with HT-29, 0.185 µM (active); in the test with M14, 0.159 µM (active); in the test with MCF7 it was 0.0335 µM (active). Also, the GI50 in the test on DU-145 is 0.628 µM (active); with NCI-H23, 0.0453 µM (active); with HOP-92, 0.309 µM (active); with Hs-578T, 0.234 µM (active); in the test with SK-MEL-28, 0.267 µM (active); in the test with U-251, 0.1 µM (active). Moreover, the GI50 was 0.0393 µM (active) in the test on ACHN; 0.184 µM (active) with SNB-75; 0.108 µM (active) in the test with NCI-H522; 1.69 µM (inactive) in the test on MDA-MB-231; 0.121 µM (active) in the test with IGROV-1; 0.0861 µM (active) in the test on 786-0.

As to `O=c1[nH]c(=O)c2c([nH]1)[nH]c1ccccc12`, the GI50 with BT-549, with OVCAR-8, in the test with UACC-257, in the test on RPMI-8226, in the test on HT-29 and with M14 was > 100 µM (inactive) each time. For the same compound, the GI50 in the test on MCF7, in the test on DU-145, in the test on NCI-H23, in the test on HOP-92, with Hs-578T and in the test on ACHN was > 100 µM (inactive) throughout. In addition, the GI50 in the test on SNB-75, in the test on NCI-H522, with MDA-MB-231, with IGROV-1 and in the test on 786-0 was > 100 µM (inactive) throughout.

Regarding `O=c1[nH]nc(Cc2ccc(Cl)cc2)n1CCO`, the GI50 with BT-549, in the test on OVCAR-8, in the test on UACC-257, in the test with RPMI-8226, in the test with HT-29 and in the test on M14 was > 100 µM (inactive) in each case. In addition, the GI50 in the test on MCF7, with DU-145, in the test on NCI-H23, with HOP-92, in the test on Hs-578T and in the test with SK-MEL-28 was > 100 µM (inactive) in each case. Also, the GI50 in the test on U-251, in the test with ACHN, with NCI-H522, in the test with MDA-MB-231, in the test on IGROV-1 and in the test with 786-0 was > 100 µM (inactive) each time.

Regarding `C=CCSC1=N/C(=C\c2ccco2)C(=O)N1CC=C`, the GI50 with BT-549 is 46.1 µM (inactive); in the test with OVCAR-8, > 100 µM (inactive); with UACC-257 it was 77.6 µM (inactive); with RPMI-8226, 28.2 µM (inactive); in the test with HT-29, 68.4 µM (inactive); with M14 it was > 100 µM (inactive). For the same compound, the GI50 was 16.6 µM (inactive) in the test on MCF7; 90.4 µM (inactive) with DU-145; 66.5 µM (inactive) with NCI-H23; 55.2 µM (inactive) with HOP-92; > 100 µM (inactive) in the test on Hs-578T; 72.4 µM (inactive) in the test on SK-MEL-28. The GI50 was > 100 µM (inactive) in the test with U-251; 34.1 µM (inactive) with ACHN; 43.9 µM (inactive) with NCI-H522; 98.9 µM (inactive) in the test on MDA-MB-231; > 100 µM (inactive) in the test with IGROV-1; > 100 µM (inactive) in the test on 786-0.

Turning to `Cc1ccc2[nH]c3c(c(=O)n(C)c(=O)n3C)c2c1`, the GI50 in the test with BT-549, with OVCAR-8, with UACC-257, in the test with RPMI-8226, in the test on HT-29 and with M14 was > 100 µM (inactive) throughout. Besides, the GI50 in the test with MCF7, in the test on DU-145, with NCI-H23, in the test with HOP-92, with Hs-578T and in the test with U-251 was > 100 µM (inactive) each time. In addition, the GI50 with ACHN, with SNB-75, in the test on NCI-H522, in the test with MDA-MB-231, with IGROV-1 and in the test on 786-0 was > 100 µM (inactive) throughout.

As for `CCOC(=O)c1c(N2CCCC2)[nH]c(=O)c(C(c2ccc(OC)cc2)c2c(O)c(C(=O)OCC)c(N3CCCC3)[nH]c2=O)c1O`, the GI50 in the test on BT-549 was 76 µM (inactive); in the test on OVCAR-8, 86.1 µM (inactive); in the test on UACC-257, > 100 µM (inactive); in the test on RPMI-8226, > 100 µM (inactive); with M14, > 100 µM (inactive); with MCF7 it was > 100 µM (inactive). Moreover, the GI50 in the test with DU-145 was > 100 µM (inactive); with NCI-H23 it was 82 µM (inactive); with HOP-92, 12.3 µM (inactive); in the test with Hs-578T it was > 100 µM (inactive); with SK-MEL-28, > 100 µM (inactive); in the test with U-251, 48.9 µM (inactive). Moreover, the GI50 in the test on ACHN is 56 µM (inactive); in the test with SNB-75, 21.3 µM (inactive); in the test with NCI-H522, > 100 µM (inactive); with MDA-MB-231, 20.8 µM (inactive); in the test on 786-0, > 100 µM (inactive).

Consider `CCOC(=O)Cc1nc2c(N)ncnc2n1C1OC(COC(C)=O)C(OC(C)=O)C1OC(C)=O` (stereo unspecified), for which the GI50 in the test with BT-549, in the test with OVCAR-8, in the test on UACC-257, in the test on RPMI-8226, in the test with HT-29 and with M14 was > 100 µM (inactive) throughout. Moreover, the GI50 with MCF7 was > 100 µM (inactive); in the test on DU-145, > 100 µM (inactive); in the test on NCI-H23 it was > 100 µM (inactive); in the test with HOP-92, 83.9 µM (inactive); in the test with Hs-578T it was > 100 µM (inactive); in the test on SK-MEL-28 it was > 100 µM (inactive). Also, the GI50 with U-251, in the test with ACHN, with NCI-H522, in the test with MDA-MB-231, in the test on IGROV-1 and in the test on 786-0 was > 100 µM (inactive) in each case.

On to `CCOC(=O)c1ccc(NC2Oc3cc4c(cc3C(c3cc(OC)c(OC)c(OC)c3)C2C)OCO4)cc1` (stereo unspecified), for which the 50% growth inhibitory concentration (GI50) with BT-549 is 0.474 µM (active); in the test with OVCAR-8, 0.935 µM (active); with RPMI-8226, 0.296 µM (active); in the test with HT-29, 0.31 µM (active); in the test with M14, 0.522 µM (active); with MCF7 it was 0.402 µM (active). Besides, the GI50 is 0.48 µM (active) with DU-145; 0.695 µM (active) in the test with NCI-H23; 0.938 µM (active) with HOP-92; 1.24 µM (inactive) in the test with Hs-578T; 32.4 µM (inactive) with SK-MEL-28; 0.433 µM (active) with U-251. The GI50 in the test on ACHN was 0.769 µM (active); with SNB-75, 0.304 µM (active); with NCI-H522, 0.416 µM (active); in the test with MDA-MB-231, 0.516 µM (active); in the test on IGROV-1, 0.48 µM (active); in the test with 786-0, 0.556 µM (active).
